From ChEMBL document CHEMBL5370537, “Aporphines: A privileged scaffold in CNS drug discovery” (Eur J Med Chem, 2023) come the findings set out here.

Structures are written as SMILES. pEC50, pIC50, pKi: −log10 of the molar value.

For test [1], the target named is T1, 5-hydroxytryptamine receptor 2C (Homo sapiens) (UniProt P28335).
T1 sequence (whole entry): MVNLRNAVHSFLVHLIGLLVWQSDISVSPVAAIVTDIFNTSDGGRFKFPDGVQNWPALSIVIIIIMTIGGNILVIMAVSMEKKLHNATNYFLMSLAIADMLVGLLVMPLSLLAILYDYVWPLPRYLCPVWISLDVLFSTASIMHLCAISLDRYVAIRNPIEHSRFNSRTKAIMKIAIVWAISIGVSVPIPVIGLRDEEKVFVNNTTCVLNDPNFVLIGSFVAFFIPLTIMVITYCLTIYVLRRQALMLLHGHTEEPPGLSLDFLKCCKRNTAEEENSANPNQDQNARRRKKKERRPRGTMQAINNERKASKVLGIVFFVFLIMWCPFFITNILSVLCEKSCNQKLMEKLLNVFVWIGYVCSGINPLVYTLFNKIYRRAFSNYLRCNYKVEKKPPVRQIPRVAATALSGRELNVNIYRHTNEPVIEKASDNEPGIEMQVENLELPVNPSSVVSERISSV
In words: Binding affinity to human 5-HT2C transfected in HEK293 cells assessed as antagonist dissociation constant measured after 1 hrs. It counts as cell-based. As to conditions: filed as antagonist.

Test [2] deals with T2, Alpha-1A adrenergic receptor (Homo sapiens) (UniProt P35348).
T2 sequence (whole entry): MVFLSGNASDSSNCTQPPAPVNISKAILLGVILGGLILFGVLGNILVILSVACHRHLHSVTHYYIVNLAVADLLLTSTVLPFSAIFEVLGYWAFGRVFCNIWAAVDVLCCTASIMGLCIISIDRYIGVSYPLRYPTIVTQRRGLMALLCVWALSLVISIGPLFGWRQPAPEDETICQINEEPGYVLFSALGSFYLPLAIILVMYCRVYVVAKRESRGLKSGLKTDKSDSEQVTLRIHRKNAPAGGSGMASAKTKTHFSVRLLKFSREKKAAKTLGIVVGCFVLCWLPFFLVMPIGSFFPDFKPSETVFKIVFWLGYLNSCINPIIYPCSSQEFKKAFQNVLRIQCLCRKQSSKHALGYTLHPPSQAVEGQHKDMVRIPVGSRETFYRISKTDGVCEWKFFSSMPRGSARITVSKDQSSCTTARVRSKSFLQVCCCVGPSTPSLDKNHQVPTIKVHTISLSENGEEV
In words: Binding affinity to human alpha1A adrenergic receptors transfected in HEK293 cells assessed as antagonist dissociation constant measured after 1 hrs. It counts as cell-based. Conditions: filed as antagonist.

The target in test [3] is T3, Alpha-1B adrenergic receptor (Homo sapiens) (UniProt P35368).
T3 sequence (whole entry): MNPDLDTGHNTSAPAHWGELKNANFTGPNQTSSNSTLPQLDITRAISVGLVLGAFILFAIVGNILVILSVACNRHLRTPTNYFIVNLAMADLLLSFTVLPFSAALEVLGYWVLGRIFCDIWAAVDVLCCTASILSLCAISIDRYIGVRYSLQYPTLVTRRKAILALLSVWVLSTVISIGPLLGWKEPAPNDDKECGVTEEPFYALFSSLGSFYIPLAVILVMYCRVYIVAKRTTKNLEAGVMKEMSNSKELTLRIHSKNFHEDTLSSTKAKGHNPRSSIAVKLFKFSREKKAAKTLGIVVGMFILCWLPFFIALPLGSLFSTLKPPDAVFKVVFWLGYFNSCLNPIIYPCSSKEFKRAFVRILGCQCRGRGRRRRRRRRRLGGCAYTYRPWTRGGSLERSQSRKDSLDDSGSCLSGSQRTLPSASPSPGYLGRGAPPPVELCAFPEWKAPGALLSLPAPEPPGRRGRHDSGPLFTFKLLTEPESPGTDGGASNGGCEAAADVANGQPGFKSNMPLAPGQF
Put plainly: Binding affinity to human alpha1B adrenergic receptors transfected in HEK293 cells assessed as antagonist dissociation constant measured after 1 hrs. Conditions: filed as antagonist. It counts as cell-based.

The target of a further test is Acetylcholinesterase (Electrophorus electricus, UniProt O42275). Put plainly: Inhibition of Electrophorus electricus AChE using ATCI as substrate pre-incubated for 10 mins followed by substrate addition measured after 5 mins by microplate reader analysis.
In a further test the target is Cholinesterase (Equus caballus, UniProt P81908). In words: Inhibition of equine serum BuChE using BTCI as substrate pre-incubated for 10 mins followed by substrate addition measured after 5 mins by microplate reader analysis.
Test [4] addresses 5-hydroxytryptamine receptor 2B (Homo sapiens, UniProt P41595). Put plainly: Binding affinity to human 5-HT2B transfected in HEK293 cells assessed as antagonist dissociation constant measured after 1 hrs. It counts as cell-based. As to conditions: filed as antagonist.
Test [5] concerns the target T4, 5-hydroxytryptamine receptor 2A (Homo sapiens, UniProt P28223). In words: Binding affinity to human 5-HT2A transfected in HEK293 cells assessed as antagonist dissociation constant measured after 1 hrs. In kind it is cell-based. Conditions: filed as antagonist.
The target of test [6] is T5, Alpha-1D adrenergic receptor (Homo sapiens) (UniProt P25100).
T5 sequence (whole entry): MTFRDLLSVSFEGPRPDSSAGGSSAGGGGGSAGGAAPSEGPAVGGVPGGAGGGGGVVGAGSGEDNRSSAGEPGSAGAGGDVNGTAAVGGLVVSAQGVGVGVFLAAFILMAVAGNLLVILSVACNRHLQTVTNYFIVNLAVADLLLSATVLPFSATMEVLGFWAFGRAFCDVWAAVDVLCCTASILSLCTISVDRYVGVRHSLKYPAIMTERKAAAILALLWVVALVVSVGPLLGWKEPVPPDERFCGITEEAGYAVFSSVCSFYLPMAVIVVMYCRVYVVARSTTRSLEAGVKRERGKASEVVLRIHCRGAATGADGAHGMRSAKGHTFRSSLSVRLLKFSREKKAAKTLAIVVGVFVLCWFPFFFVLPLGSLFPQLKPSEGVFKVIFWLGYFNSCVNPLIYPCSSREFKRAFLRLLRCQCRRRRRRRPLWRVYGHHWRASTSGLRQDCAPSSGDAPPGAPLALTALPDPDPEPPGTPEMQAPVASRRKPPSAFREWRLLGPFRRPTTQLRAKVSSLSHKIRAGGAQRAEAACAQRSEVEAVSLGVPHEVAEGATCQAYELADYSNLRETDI
In words: Binding affinity to human alpha1D adrenergic receptors transfected in HEK293 cells assessed as antagonist dissociation constant measured after 1 hrs. In kind it is cell-based. As to conditions: filed as antagonist.

The target in the next test is D(1A) dopamine receptor (Homo sapiens, UniProt P21728). In words: Antagonist activity at D1R (unknown origin) transfected in HEK293 cells by FLIPR assay.
Test [7] concerns the target T4, 5-hydroxytryptamine receptor 2A. Put plainly: Antagonist activity at 5-HT2A (unknown origin) transfected in HEK293 cells by FLIPR assay. It counts as functional, cell-based.
Test [8] has as its target T6, 5-hydroxytryptamine receptor 2C (Homo sapiens, UniProt P28335).
T6 sequence (P28335 whole entry): T1 sequence (whole entry)
In words: Partial agonist activity at human 5-HT2C stably transfected in HEK293T cells measured after 18 to 24 hrs by FLIPR assay. It counts as functional, cell-based.

For test [9], the target named is T1, 5-hydroxytryptamine receptor 2C (Homo sapiens). Put plainly: Partial agonist activity at human 5-HT2C stably transfected in HEK293T cells measured after 18 to 24 hrs by FLIPR assay relative to control. In kind it is functional, cell-based. As to conditions: filed as partial agonist, time 18-24 hrs.
The target in test [10] is Acetylcholinesterase (Electrophorus electricus) (UniProt O42275). Put plainly: Potency index, ratio of (R)-Roemerine IC50 to test compound IC50 for inhibition of Electrophorus electricus AChE using ATCI as substrate pre-incubated for 10 mins followed by substrate addition measured after 5 mins by microplate reader analysis. Conditions: time 15.0 min.
The target is the same in test [11]. In words: Potency index, ratio of (R)-Stephanine IC50 to test compound IC50 for inhibition of Electrophorus electricus AChE using ATCI as substrate pre-incubated for 10 mins followed by substrate addition measured after 5 mins by microplate reader analysis. As to conditions: time 15.0 min.
For test [12] the target is unchanged. Put plainly: Potency index, ratio of (S)-Dicentrine IC50 to test compound IC50 for inhibition of Electrophorus electricus AChE using ATCI as substrate pre-incubated for 10 mins followed by substrate addition measured after 5 mins by microplate reader analysis. As to conditions: time 15.0 min.
The test system of test [13] is BV-2. Put plainly: Inhibition of NO production in LPS-induced mouse BV-2 cells incubated for 24 hrs by Griess reagent based microplate reader analysis. In kind it is functional, cell-based. Conditions: BV-2, 24 h. Background: Nitrite, measured by Griess reagent, commonly stands in for NO production.
The target in the next test is D(2) dopamine receptor (Homo sapiens, UniProt P14416). In words: Antagonist activity at D2R (unknown origin). In kind it is functional.
Test [14] has as its target 5-hydroxytryptamine receptor 7 (Rattus norvegicus, UniProt P32305). In words: Displacement of [3H]5-HT from rat 5-HT7 assessed as inhibition constant. On the technique in general: Loss of bound radioactivity is the signal in a displacement assay; it reports binding, not function.
In test [15] the test system is BV-2. In words: Potency index, ratio of minocycline IC50 to test compound IC50 for inhibition of NO production in LPS-induced mouse BV-2 cells incubated for 24 hrs by Griess reagent based microplate reader analysis. It counts as functional.

Sequence of Cholinesterase (P81908 whole entry): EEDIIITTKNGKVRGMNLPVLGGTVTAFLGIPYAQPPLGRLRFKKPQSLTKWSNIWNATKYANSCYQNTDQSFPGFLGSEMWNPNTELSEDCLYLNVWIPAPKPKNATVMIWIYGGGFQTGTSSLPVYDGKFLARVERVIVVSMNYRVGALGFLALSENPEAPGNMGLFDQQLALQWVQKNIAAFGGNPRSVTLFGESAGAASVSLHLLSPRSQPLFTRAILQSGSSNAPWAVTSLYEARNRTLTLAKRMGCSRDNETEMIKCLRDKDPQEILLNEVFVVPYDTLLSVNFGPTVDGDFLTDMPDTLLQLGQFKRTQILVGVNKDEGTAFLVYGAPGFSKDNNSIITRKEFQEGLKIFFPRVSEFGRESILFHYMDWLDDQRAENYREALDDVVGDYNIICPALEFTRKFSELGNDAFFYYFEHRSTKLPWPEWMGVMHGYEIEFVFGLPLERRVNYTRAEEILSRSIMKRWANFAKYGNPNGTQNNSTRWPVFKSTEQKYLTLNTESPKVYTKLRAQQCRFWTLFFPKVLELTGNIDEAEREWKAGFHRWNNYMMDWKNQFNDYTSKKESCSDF
Sequence of Acetylcholinesterase (Electrophorus electricus) (O42275 24-633 limits assumed): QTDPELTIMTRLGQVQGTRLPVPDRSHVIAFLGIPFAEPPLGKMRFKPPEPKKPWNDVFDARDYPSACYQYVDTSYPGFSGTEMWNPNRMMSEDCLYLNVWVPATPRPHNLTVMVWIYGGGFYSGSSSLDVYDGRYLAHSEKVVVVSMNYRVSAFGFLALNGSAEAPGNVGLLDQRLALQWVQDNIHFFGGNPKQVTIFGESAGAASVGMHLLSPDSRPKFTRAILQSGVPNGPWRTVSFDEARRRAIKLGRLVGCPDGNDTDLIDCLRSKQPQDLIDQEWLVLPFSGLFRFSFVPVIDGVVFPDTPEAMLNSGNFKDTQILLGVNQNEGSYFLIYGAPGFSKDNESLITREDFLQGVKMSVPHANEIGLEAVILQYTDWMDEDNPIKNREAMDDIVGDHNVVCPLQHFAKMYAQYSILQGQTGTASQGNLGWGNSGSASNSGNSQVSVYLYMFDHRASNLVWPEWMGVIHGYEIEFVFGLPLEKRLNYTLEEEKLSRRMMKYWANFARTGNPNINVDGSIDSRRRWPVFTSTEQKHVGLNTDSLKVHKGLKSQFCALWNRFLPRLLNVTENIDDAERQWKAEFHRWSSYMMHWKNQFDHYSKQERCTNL
Sequence of Acetylcholinesterase (O42275 whole entry): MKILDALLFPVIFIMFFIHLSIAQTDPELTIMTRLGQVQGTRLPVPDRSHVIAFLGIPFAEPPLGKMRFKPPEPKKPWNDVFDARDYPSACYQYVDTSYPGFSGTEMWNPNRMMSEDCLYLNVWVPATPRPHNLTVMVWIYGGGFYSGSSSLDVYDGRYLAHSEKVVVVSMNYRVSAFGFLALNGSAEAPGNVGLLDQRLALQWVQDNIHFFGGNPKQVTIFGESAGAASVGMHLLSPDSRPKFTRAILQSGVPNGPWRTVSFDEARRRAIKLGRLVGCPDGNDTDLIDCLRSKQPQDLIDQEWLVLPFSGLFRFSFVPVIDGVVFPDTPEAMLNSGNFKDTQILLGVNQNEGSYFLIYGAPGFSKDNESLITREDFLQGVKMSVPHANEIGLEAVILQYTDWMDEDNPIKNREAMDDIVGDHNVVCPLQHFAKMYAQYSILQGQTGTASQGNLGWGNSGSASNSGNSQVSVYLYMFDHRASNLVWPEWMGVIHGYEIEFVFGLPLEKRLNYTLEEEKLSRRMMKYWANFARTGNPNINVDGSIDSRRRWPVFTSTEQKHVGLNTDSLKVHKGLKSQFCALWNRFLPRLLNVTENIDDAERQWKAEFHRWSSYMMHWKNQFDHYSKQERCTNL
T4 sequence (P28223 whole entry): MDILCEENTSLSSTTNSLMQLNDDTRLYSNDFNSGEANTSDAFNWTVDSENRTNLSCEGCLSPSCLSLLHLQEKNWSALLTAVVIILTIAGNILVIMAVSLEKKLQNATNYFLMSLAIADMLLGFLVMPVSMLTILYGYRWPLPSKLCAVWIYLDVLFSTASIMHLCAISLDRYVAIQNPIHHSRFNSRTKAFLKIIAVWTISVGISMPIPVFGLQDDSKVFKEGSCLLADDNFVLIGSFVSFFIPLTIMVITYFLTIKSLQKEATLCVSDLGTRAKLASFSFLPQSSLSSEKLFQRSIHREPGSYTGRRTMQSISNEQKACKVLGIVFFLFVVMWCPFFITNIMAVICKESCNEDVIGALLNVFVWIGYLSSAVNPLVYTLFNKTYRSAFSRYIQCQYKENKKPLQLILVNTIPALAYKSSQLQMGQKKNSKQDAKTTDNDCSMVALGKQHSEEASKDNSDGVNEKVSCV
Sequence of D(1A) dopamine receptor (P21728 whole entry): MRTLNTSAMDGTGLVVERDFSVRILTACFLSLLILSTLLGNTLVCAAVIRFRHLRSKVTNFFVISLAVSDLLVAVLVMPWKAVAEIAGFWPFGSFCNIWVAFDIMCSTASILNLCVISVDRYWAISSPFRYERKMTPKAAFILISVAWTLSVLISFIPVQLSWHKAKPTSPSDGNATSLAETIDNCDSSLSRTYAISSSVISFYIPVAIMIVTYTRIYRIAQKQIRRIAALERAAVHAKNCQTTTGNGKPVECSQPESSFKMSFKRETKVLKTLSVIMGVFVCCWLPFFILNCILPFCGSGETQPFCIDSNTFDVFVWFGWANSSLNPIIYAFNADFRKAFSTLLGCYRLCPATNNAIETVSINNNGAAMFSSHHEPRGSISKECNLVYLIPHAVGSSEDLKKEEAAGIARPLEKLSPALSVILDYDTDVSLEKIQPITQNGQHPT
Sequence of D(2) dopamine receptor (P14416 whole entry): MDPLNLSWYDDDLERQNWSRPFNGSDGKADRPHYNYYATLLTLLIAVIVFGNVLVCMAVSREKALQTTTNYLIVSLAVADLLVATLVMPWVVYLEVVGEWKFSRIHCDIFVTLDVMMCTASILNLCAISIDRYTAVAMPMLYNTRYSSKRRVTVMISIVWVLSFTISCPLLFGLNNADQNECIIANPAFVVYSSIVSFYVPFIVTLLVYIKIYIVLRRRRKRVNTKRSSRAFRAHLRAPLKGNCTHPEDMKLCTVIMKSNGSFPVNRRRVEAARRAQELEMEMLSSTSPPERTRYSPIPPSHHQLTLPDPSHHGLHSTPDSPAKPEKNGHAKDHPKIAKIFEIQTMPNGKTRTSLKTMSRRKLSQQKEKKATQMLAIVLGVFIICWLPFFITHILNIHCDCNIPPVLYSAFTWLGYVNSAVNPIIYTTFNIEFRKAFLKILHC
Sequence of 5-hydroxytryptamine receptor 2B (P41595 whole entry): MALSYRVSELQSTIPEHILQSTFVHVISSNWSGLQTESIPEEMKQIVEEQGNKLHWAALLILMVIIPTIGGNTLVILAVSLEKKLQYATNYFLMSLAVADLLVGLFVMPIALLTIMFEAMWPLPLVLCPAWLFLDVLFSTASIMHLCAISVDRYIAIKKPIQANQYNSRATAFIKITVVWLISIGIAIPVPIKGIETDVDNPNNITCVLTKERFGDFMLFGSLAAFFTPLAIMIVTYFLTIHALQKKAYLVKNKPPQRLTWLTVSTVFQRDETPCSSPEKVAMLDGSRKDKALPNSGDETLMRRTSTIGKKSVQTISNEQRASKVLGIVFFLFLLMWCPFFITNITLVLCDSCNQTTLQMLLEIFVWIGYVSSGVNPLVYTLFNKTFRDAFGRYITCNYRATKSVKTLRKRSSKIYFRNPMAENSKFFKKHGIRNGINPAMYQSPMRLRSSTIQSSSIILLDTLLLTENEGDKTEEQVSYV
Sequence of 5-hydroxytryptamine receptor 7 (P32305 whole entry): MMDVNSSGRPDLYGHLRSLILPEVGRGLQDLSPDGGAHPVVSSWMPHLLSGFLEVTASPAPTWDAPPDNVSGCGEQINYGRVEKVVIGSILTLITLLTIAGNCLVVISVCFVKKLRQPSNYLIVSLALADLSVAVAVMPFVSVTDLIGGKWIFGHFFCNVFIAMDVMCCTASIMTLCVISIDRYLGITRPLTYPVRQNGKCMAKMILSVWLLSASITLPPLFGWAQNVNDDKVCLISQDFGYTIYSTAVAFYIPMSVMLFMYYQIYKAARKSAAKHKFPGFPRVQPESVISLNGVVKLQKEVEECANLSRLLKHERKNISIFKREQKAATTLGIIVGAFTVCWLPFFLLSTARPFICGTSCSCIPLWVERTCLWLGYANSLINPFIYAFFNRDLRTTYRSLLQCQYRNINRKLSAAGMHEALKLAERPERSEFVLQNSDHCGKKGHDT

As usually defined, the Kb is the equilibrium dissociation constant of an antagonist, usually derived from a functional assay. A word on the pIC50: it is −log10 of the IC50, conventionally taken in molar units. High values mean a small IC50, low ones a large IC50. Consider `COc1cc2c(cc1OC)-c1c3c(cc4c1[C@H](C2)N(C)CC4)OCO3` [DICENTRINE], for which the Kb in [1] was 0.776 µM; in [2] it was 0.163 µM; in test [3], 0.155 µM; in test [4] it was 0.208 µM; in [5], 0.0839 µM; in test [6], 0.181 µM. In addition, the values for the pIC50 against Acetylcholinesterase and on Cholinesterase were 5.21 and 4.58, respectively.

The compound `COc1c(O)cc2c3c1-c1ccccc1CC3NCC2` (configuration not stated) had a pIC50 against D(1A) dopamine receptor of 5.14.

For the compound `COc1c(O)cc2c3c1-c1ccccc1CC3N(C)CC2` (configuration not stated), the negative-log IC50 (pIC50) in test [7] was 4.71.

The pEC50 is the negative decadic logarithm of the EC50, by convention in mol/L. Read a high pEC50 as a low EC50. A word on the Emax: it is the size of the effect at its maximum, as opposed to the concentration needed. Consider `COc1cc2c3c(c1OC)-c1ccccc1CC3NCC2` (configuration not stated) [NORNUCIFERINE], for which the negative logarithm of the EC50 (pEC50) in test [8] was 6.51. In test [9], this compound gave a maximum response (Emax) of 65.6%. The pIC50 on D(1A) dopamine receptor is 4.41.

Regarding `COc1ccc2c(c1)C[C@@H]1c3c(cc4c(c3-2)OCO4)CCN1C`, the pIC50 on Acetylcholinesterase is 4.92; on Cholinesterase, 4.78.

On to `COc1cc2cc3c4c(cc5c(c4c2cc1OC)OCO5)CCN3C` [DEHYDRODICENTRINE], for which the Ratio IC50 in [10], in test [11] and in test [12] was 4 each time. Besides, the pIC50 was 5.96 on Acetylcholinesterase and 5.25 on Cholinesterase.

Regarding `COc1c2c3c(c4c1OCO4)-c1ccccc1C[C@H]3N(C)CC2`, the pIC50 is 4.40 at Acetylcholinesterase and 3.98 against Cholinesterase.

`COc1cccc2c1cc1c3c(cc4c(c32)OCO4)CCN1C` gave a negative logarithm of the IC50 (pIC50) in the test with BV-2 [13] of 4.52.

For `COc1ccc(OC)c2c1C[C@@H]1c3c(cc4c(c3-2)OCO4)CCN1C`, the pIC50 against D(2) dopamine receptor was 4.74.

In general, pKi refers to −log10 of the Ki, conventionally taken in molar units. For `CN1CCc2ccc3c4c2[C@H]1Cc1cccc(c1-4)C3`, the pKi in test [14] is 8.37.

In the case of `COc1cccc2c1[C@@H](O)[C@@H]1c3c(cc4c(c3-2)OCO4)CCN1C`, the results for the pIC50 on Acetylcholinesterase and on Cholinesterase were 5.21 and 5.23, respectively.

Consider `COc1cccc2c1C[C@@H]1c3c(cc4c(c3-2)OCO4)CCN1C` [STEPHANINE], for which the negative-log IC50 (pIC50) against Acetylcholinesterase is 4.95; on Cholinesterase, 5.55; in the test on BV-2 [13], 4.69; against D(2) dopamine receptor, 6.07. Besides, the “Ratio IC50” value in the test on BV-2 [15] was roughly 4.
